Assay results reported in patent US12077503B2, “Substituted cyclic amides and their use as herbicides” (FMC CORPORATION, priority 2015, dated 2024).

Tests used:
Assay type in all cases: in vivo
[1] = system: crabgrass, large (Digitaria sanguinalis); assay: Test A preemergence; details: for Plant response rating, Crabgrass, Large: preemergence; for Crabgrass, Large plant response rating (0 to 100 scale): Preemergence, 0 is no effect, 100 is complete control
Outline: (§1)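 Preemergence soil spray on seeded pots or post-emergence spray on 1–2 leaf plants, in loam–sand blend. Greenhouse ~10 d. Visual rating 0–100 against untreated plants.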

[2] = system: wheat (Triticum aestivum); assay: Test A preemergence; details: for Plant response rating, Wheat: preemergence; for Wheat plant response rating (0 to 100 scale): Preemergence, 0 is no effect, 100 is complete control
Outline: as §1

corn (Zea mays) [3] = assay: Test A preemergence; details: for Plant response rating, Corn: preemergence; for Corn plant response rating (0 to 100 scale): Preemergence, 0 is no effect, 100 is complete control
Outline: as §1

[4] = system: velvetleaf (Abutilon theophrasti); assay: Test A preemergence; details: for Plant response rating, Velvetleaf: preemergence; for Velvetleaf plant response rating (0 to 100 scale): Preemergence, 0 is no effect, 100 is complete control
Outline: as §1

[5] = system: morningglory (Ipomoea spp.); assay: Test A preemergence; details: for Plant response rating, Morningglory: preemergence; for Morningglory plant response rating (0 to 100 scale): Preemergence, 0 is no effect, 100 is complete control
Outline: as §1

[6] = system: barnyardgrass (Echinochloa crus-galli); assay: Test A preemergence; details: for Plant response rating, Barnyardgrass: preemergence; for Barnyardgrass plant response rating (0 to 100 scale): Preemergence, 0 is no effect, 100 is complete control
Outline: as §1

[7] = system: pigweed (Amaranthus retroflexus); assay: Test A preemergence; details: for Plant response rating, Pigweed: preemergence; for Pigweed plant response rating (0 to 100 scale): Preemergence, 0 is no effect, 100 is complete control
[8] = system: giant foxtail (Setaria faberii); assay: Test A preemergence; details: for Plant response rating, Foxtail, Giant: preemergence; for Foxtail, Giant plant response rating (0 to 100 scale): Preemergence, 0 is no effect, 100 is complete control
Outline: as §1

[9] = system: ducksalad (Heteranthera limosa); assay: Test B flooded paddy test; details: Flood, 0 to 100 scale where 0 is no effect and 100 is complete control, 13 to 15 d
Outline: (§2)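 Rating scale 0–100 (visual, vs untreated controls) after a 13–15 d greenhouse period; application to the flood layer, 3 cm above soil and maintained; plants at 2-leaf stage when treated.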

[10] = system: sedge, umbrella (small-flower umbrella sedge, Cyperus difformis); assay: Test B flooded paddy test; details: Flood; for Plant response rating, Sedge, Umbrella: 0 to 100 scale where 0 is no effect and 100 is complete control, 13 to 15 d
Outline: as §2

rice (Oryra sativa) = assay: Test B flooded paddy test; details: Flood, 0 to 100 scale where 0 is no effect and 100 is complete control, 13 to 15 d
Outline: as §2

[11] = system: barnyardgrass (Echinochloa crus-galli); assay: Test B flooded paddy test; details: Flood, 0 to 100 scale where 0 is no effect and 100 is complete control, 13 to 15 d
Outline: as §2

[12] = system: crabgrass, large (Digitaria sanguinalis); assay: Test A postemergence
Outline: as §1

[13] = system: wheat (Triticum aestivum); assay: Test A postemergence
Outline: as §1

corn (Zea mays) [14] = assay: Test A postemergence
Outline: as §1

[15] = system: velvetleaf (Abutilon theophrasti); assay: Test A postemergence
Outline: as §1

[16] = system: morningglory (Ipomoea spp.); assay: Test A postemergence
Outline: as §1

[17] = system: barnyardgrass (Echinochloa crus-galli); assay: Test A postemergence
Outline: as §1

[18] = system: pigweed (Amaranthus retroflexus); assay: Test A postemergence
Outline: as §1

[19] = system: giant foxtail (Setaria faberii); assay: Test A postemergence
Outline: as §1

[20] = 125 g ai/ha, 0 to 100 scale (0 no effect, 100 complete control)
[21] = 500 g ai/ha, postemergence, 0 to 100 scale, 0 no effect, 100 complete control
[22] = Postemergence, 125 g ai/ha, visual injury, 0 to 100 scale (0 no effect, 100 complete control), approx. 10 d
[23] = 125 g ai/ha, visual rating after approx. 10 d, 0 to 100 scale where 0 is no effect and 100 is complete control
[24] = 500 g ai/ha, 0 to 100 scale, 0 = no effect, 100 = complete control
[25] = 125 g ai/ha, postemergence, visual injury after approximately 10 d, 0 to 100 scale (0 no effect, 100 complete control)
[26] = 500 g ai/ha, postemergence, visual injury, 0 to 100 scale (0 no effect, 100 complete control), approx. 10 d

O=C1NCC(c2ccc(F)c(F)c2)C1C(=O)Nc1n[nH]cc1Br (racemic) [Compound 361]
0: Plant response rating, Crabgrass, Large [1, 20] | Crabgrass, Large plant response rating (0 to 100 scale) ([1]; 500 g ai/ha) | Plant response rating, Wheat [2, 20] | Wheat plant response rating (0 to 100 scale) ([2]; 500 g ai/ha) | Plant response rating, Corn (corn (Zea mays) [3]; [20]) | Corn plant response rating (0 to 100 scale) (corn (Zea mays) [3]; 500 g ai/ha) | Plant response rating, Velvetleaf [4, 20] | Velvetleaf plant response rating (0 to 100 scale) ([4]; 500 g ai/ha) | Plant response rating, Morningglory [5, 20] | Morningglory plant response rating (0 to 100 scale) ([5]; 500 g ai/ha) | Plant response rating, Barnyardgrass [6, 20] | Barnyardgrass plant response rating (0 to 100 scale) ([6]; 500 g ai/ha) | Plant response rating, Pigweed [7, 20] | Pigweed plant response rating (0 to 100 scale) ([7]; 500 g ai/ha) | Plant response rating, Foxtail, Giant [8, 20] | Foxtail, Giant plant response rating (0 to 100 scale) ([8]; 500 g ai/ha) | Plant response rating, Ducksalad ([9]; 250 g ai/ha) | Plant response rating, Sedge, Umbrella ([10]; 250 g ai/ha) | Plant response rating, Rice (rice (Oryra sativa); 250 g ai/ha) | Plant response rating, Barnyardgrass ([11]; 250 g ai/ha) | Plant response rating, Crabgrass, Large [12, 21] | Plant response rating, Crabgrass, Large [12, 22] | Plant response rating, Wheat [13, 21] | Plant response rating, Wheat [13, 22] | Plant response rating, Corn (corn (Zea mays) [14]; [21]) | Plant response rating, Corn (corn (Zea mays) [14]; [22]) | Plant response rating, Velvetleaf [15, 21] | Plant response rating, Velvetleaf [15, 22] | Plant response rating, Morningglory [16, 21] | Plant response rating, Morningglory [16, 22] | Plant response rating, Barnyardgrass [17, 21] | Plant response rating, Barnyardgrass [17, 22] | Plant response rating, Pigweed [18, 21] | Plant response rating, Pigweed [18, 22] | Plant response rating, Foxtail, Giant [19, 21] | Plant response rating, Foxtail, Giant [19, 22]

O=C1NCC(c2ccc(-c3ccccc3)cc2)C1C(=O)Nc1ccccc1C(F)(F)F (racemic) [Compound 367]
0: Plant response rating, Crabgrass, Large [1, 20] | Crabgrass, Large plant response rating (0 to 100 scale) ([1]; 500 g ai/ha) | Plant response rating, Wheat [2, 20] | Wheat plant response rating (0 to 100 scale) ([2]; 500 g ai/ha) | Plant response rating, Corn (corn (Zea mays) [3]; [20]) | Corn plant response rating (0 to 100 scale) (corn (Zea mays) [3]; 500 g ai/ha) | Plant response rating, Velvetleaf [4, 20] | Velvetleaf plant response rating (0 to 100 scale) ([4]; 500 g ai/ha) | Plant response rating, Morningglory [5, 20] | Morningglory plant response rating (0 to 100 scale) ([5]; 500 g ai/ha) | Plant response rating, Barnyardgrass [6, 20] | Barnyardgrass plant response rating (0 to 100 scale) ([6]; 500 g ai/ha) | Plant response rating, Pigweed [7, 20] | Pigweed plant response rating (0 to 100 scale) ([7]; 500 g ai/ha) | Plant response rating, Foxtail, Giant [8, 20] | Foxtail, Giant plant response rating (0 to 100 scale) ([8]; 500 g ai/ha) | Plant response rating, Ducksalad ([9]; 1000 g ai/ha) | Plant response rating, Sedge, Umbrella ([10]; 1000 g ai/ha) | Plant response rating, Rice (rice (Oryra sativa); 1000 g ai/ha) | Plant response rating, Barnyardgrass ([11]; 1000 g ai/ha) | Plant response rating, Crabgrass, Large [12, 21] | Plant response rating, Crabgrass, Large [12, 22] | Plant response rating, Wheat [13, 21] | Plant response rating, Wheat [13, 22] | Plant response rating, Corn (corn (Zea mays) [14]; [21]) | Plant response rating, Corn (corn (Zea mays) [14]; [22]) | Plant response rating, Velvetleaf [15, 21] | Plant response rating, Velvetleaf [15, 22] | Plant response rating, Morningglory [16, 21] | Plant response rating, Morningglory [16, 22] | Plant response rating, Barnyardgrass [17, 21] | Plant response rating, Barnyardgrass [17, 22] | Plant response rating, Pigweed [18, 21] | Plant response rating, Pigweed [18, 22] | Plant response rating, Foxtail, Giant [19, 21] | Plant response rating, Foxtail, Giant [19, 22]

O=C1NCC(c2cccc(O)c2)C1C(=O)Nc1ccccc1C(F)(F)F (racemic) [Compound 716]
0: Plant response rating, Crabgrass, Large [1, 23] | Plant response rating, Crabgrass, Large [1, 24] | Plant response rating, Wheat [2, 23] | Plant response rating, Wheat [2, 24] | Plant response rating, Corn (corn (Zea mays) [3]; [23]) | Plant response rating, Corn (corn (Zea mays) [3]; [24]) | Plant response rating, Velvetleaf [4, 23] | Plant response rating, Velvetleaf [4, 24] | Plant response rating, Morningglory [5, 23] | Plant response rating, Morningglory [5, 24] | Plant response rating, Barnyardgrass [6, 23] | Plant response rating, Barnyardgrass [6, 24] | Plant response rating, Pigweed [7, 23] | Plant response rating, Pigweed [7, 24] | Plant response rating, Foxtail, Giant [8, 23] | Plant response rating, Foxtail, Giant [8, 24] | Plant response rating, Ducksalad ([9]; 250 g ai/ha) | Sedge, Umbrella plant response rating ([10]; 250 g ai/ha, scale of 0 to 100 where 0 is no effect and 100 is complete control) | Plant response rating, Rice (rice (Oryra sativa); 250 g ai/ha) | Plant response rating, Barnyardgrass ([11]; 250 g ai/ha) | Plant response rating, Crabgrass, Large [12, 25] | Plant response rating, Crabgrass, Large [12, 26] | Plant response rating, Wheat [13, 25] | Plant response rating, Wheat [13, 26] | Plant response rating, Corn (corn (Zea mays) [14]; [25]) | Plant response rating, Corn (corn (Zea mays) [14]; [26]) | Plant response rating, Velvetleaf [15, 25] | Plant response rating, Velvetleaf [15, 26] | Plant response rating, Morningglory [16, 25] | Plant response rating, Morningglory [16, 26] | Plant response rating, Barnyardgrass [17, 25] | Plant response rating, Barnyardgrass [17, 26] | Plant response rating, Pigweed [18, 25] | Plant response rating, Pigweed [18, 26] | Plant response rating, Foxtail, Giant [19, 25] | Plant response rating, Foxtail, Giant [19, 26]
